Species on record: Rattus norvegicus
Assay: DrugMatrix - Regimen: Daily Repeat
Format: toxicity, organism-based, Sprague-Dawley
Set-up: regimen Daily Repeat, gender Male, age 6-8 weeks
Conditions: in vivo, po, route oral GAVAGE, […]; for ABSOLUTE BASOPHIL / ABSOLUTE EOSINOPHIL / ABSOLUTE LYMPHOCYTE / ABSOLUTE MONOCYTE / ABSOLUTE SEGMENTED NEUTROPHIL / BASOPHIL / EOSINOPHIL / ERYTHROCYTE COUNT / HEMATOCRIT / HEMOGLOBIN / LEUKOCYTE COUNT / LYMPHOCYTE / MEAN CORPUSCULAR HEMOGLOBIN / MEAN CORPUSCULAR HEMOGLOBIN CONCENTRATION / MEAN CORPUSCULAR VOLUME / MONOCYTE / NEUTROPHIL / NUCLEATED RED BLOOD CELLS / PLATELET COUNT: tissue Blood; for ALANINE AMINOTRANSFERASE / ALBUMIN / ALKALINE PHOSPHATASE / ASPARTATE AMINOTRANSFERASE / BLOOD UREA NITROGEN / CARBON DIOXIDE / CHLORIDE / CHOLESTEROL / CREATINE PHOSPHOKINASE / CREATININE / GLUCOSE / LACTATE DEHYDROGENASE / LIPASE / PHOSPHORUS / POTASSIUM / SODIUM / TOTAL BILIRUBIN / TOTAL PROTEIN / URIC ACID: tissue Plasma
[1] = 80 mg/kg, 120 h, dose level Low, time 5 day
[2] = 338 mg/kg, 72 h, dose level High, time 3 day
[3] = 338 mg/kg, 120 h, dose level High, time 5 day

CC(C)(Oc1ccc(C2CCCc3ccccc32)cc1)C(=O)O (centres undefined) [NAFENOPIN]
ABSOLUTE BASOPHIL [1]: 0 CELLS/uL
ABSOLUTE EOSINOPHIL [1]: 0 CELLS/uL
ABSOLUTE LYMPHOCYTE [1]: 12561 CELLS/uL
ABSOLUTE MONOCYTE [1]: 516.67 CELLS/uL
ABSOLUTE SEGMENTED NEUTROPHIL [1]: 1089 CELLS/uL
BASOPHIL [1]: 0%
EOSINOPHIL [1]: 0%
ERYTHROCYTE COUNT [1]: 5.43 x10E6/uL
HEMATOCRIT [1]: 32.67%
HEMOGLOBIN [1]: 12.23 G/DL
LEUKOCYTE COUNT [1]: 14.17 x10E3/uL
LYMPHOCYTE [1]: 88.67%
MEAN CORPUSCULAR HEMOGLOBIN [1]: 22.57 pg
MEAN CORPUSCULAR HEMOGLOBIN CONCENTRATION [1]: 37.5 G/DL
MEAN CORPUSCULAR VOLUME [1]: 60.17 fL
MONOCYTE [1]: 3.67%
NEUTROPHIL [1]: 7.67%
NUCLEATED RED BLOOD CELLS [1]: 0 /100WBC
PLATELET COUNT [1]: 828.67 x10E3/uL
ALANINE AMINOTRANSFERASE [1]: 61.67 u/L
ALBUMIN [1]: 5.07 G/DL
ALKALINE PHOSPHATASE [1]: 578 u/L
ASPARTATE AMINOTRANSFERASE [1]: 85.33 u/L
BLOOD UREA NITROGEN [1]: 14.33 mg/dL
CARBON DIOXIDE [1]: 32 mmol/L
CHLORIDE [1]: 97 MEQ/L
CHOLESTEROL [1]: 65.33 mg/dL
CREATINE PHOSPHOKINASE [1]: 403.67 u/L
CREATININE [1]: 0.25 mg/dL
GLUCOSE [1]: 148.67 mg/dL
LACTATE DEHYDROGENASE [1]: 257.33 u/L
LIPASE [1]: 9.67 u/L
PHOSPHORUS [1]: 13.43 mg/dL
POTASSIUM [1]: 6.96 MEQ/L
SODIUM [1]: 142.07 MEQ/L
TOTAL BILIRUBIN [1]: 0.13 mg/dL
TOTAL PROTEIN [1]: 6.07 G/DL
URIC ACID [1]: 1.23 mg/dL
ABSOLUTE BASOPHIL [2]: 0 CELLS/uL
ABSOLUTE EOSINOPHIL [2]: 40.33 CELLS/uL
ABSOLUTE LYMPHOCYTE [2]: 10009.33 CELLS/uL
ABSOLUTE MONOCYTE [2]: 484 CELLS/uL
ABSOLUTE SEGMENTED NEUTROPHIL [2]: 1499.67 CELLS/uL
BASOPHIL [2]: 0%
EOSINOPHIL [2]: 0.33%
ERYTHROCYTE COUNT [2]: 5.41 x10E6/uL
HEMATOCRIT [2]: 32.97%
HEMOGLOBIN [2]: 12.87 G/DL
LEUKOCYTE COUNT [2]: 12.03 x10E3/uL
LYMPHOCYTE [2]: 83.33%
MEAN CORPUSCULAR HEMOGLOBIN [2]: 23.77 pg
MEAN CORPUSCULAR HEMOGLOBIN CONCENTRATION [2]: 39.03 G/DL
MEAN CORPUSCULAR VOLUME [2]: 60.93 fL
MONOCYTE [2]: 4%
NEUTROPHIL [2]: 12.33%
NUCLEATED RED BLOOD CELLS [2]: 0 /100WBC
PLATELET COUNT [2]: 1008 x10E3/uL
ALANINE AMINOTRANSFERASE [2]: 113 u/L
ALBUMIN [2]: 4.73 G/DL
ALKALINE PHOSPHATASE [2]: 921 u/L
ASPARTATE AMINOTRANSFERASE [2]: 143 u/L
BLOOD UREA NITROGEN [2]: 13.67 mg/dL
CARBON DIOXIDE [2]: 22 mmol/L
CHLORIDE [2]: 104 MEQ/L
CHOLESTEROL [2]: 59.67 mg/dL
CREATINE PHOSPHOKINASE [2]: 584.33 u/L
CREATININE [2]: 0.7 mg/dL
GLUCOSE [2]: 143.67 mg/dL
LACTATE DEHYDROGENASE [2]: 415.33 u/L
LIPASE [2]: 10 u/L
PHOSPHORUS [2]: 12.27 mg/dL
POTASSIUM [2]: 6.14 MEQ/L
SODIUM [2]: 143.63 MEQ/L
TOTAL BILIRUBIN [2]: 0.2 mg/dL
TOTAL PROTEIN [2]: 5.63 G/DL
URIC ACID [2]: 1.23 mg/dL
ABSOLUTE BASOPHIL [3]: 0 CELLS/uL
ABSOLUTE EOSINOPHIL [3]: 38 CELLS/uL
ABSOLUTE LYMPHOCYTE [3]: 11719.67 CELLS/uL
ABSOLUTE MONOCYTE [3]: 400 CELLS/uL
ABSOLUTE SEGMENTED NEUTROPHIL [3]: 1175.67 CELLS/uL
BASOPHIL [3]: 0%
EOSINOPHIL [3]: 0.33%
ERYTHROCYTE COUNT [3]: 5.3 x10E6/uL
HEMATOCRIT [3]: 30.47%
HEMOGLOBIN [3]: 11.43 G/DL
LEUKOCYTE COUNT [3]: 13.33 x10E3/uL
LYMPHOCYTE [3]: 88%
MEAN CORPUSCULAR HEMOGLOBIN [3]: 21.6 pg
MEAN CORPUSCULAR HEMOGLOBIN CONCENTRATION [3]: 37.53 G/DL
MEAN CORPUSCULAR VOLUME [3]: 57.53 fL
MONOCYTE [3]: 3%
NEUTROPHIL [3]: 8.67%
NUCLEATED RED BLOOD CELLS [3]: 0 /100WBC
PLATELET COUNT [3]: 850.67 x10E3/uL
ALANINE AMINOTRANSFERASE [3]: 87 u/L
ALBUMIN [3]: 4.73 G/DL
ALKALINE PHOSPHATASE [3]: 891.33 u/L
ASPARTATE AMINOTRANSFERASE [3]: 88.67 u/L
BLOOD UREA NITROGEN [3]: 12.67 mg/dL
CARBON DIOXIDE [3]: 29 mmol/L
CHLORIDE [3]: 98 MEQ/L
CHOLESTEROL [3]: 96.67 mg/dL
CREATINE PHOSPHOKINASE [3]: 209.67 u/L
CREATININE [3]: 0.65 mg/dL
GLUCOSE [3]: 129.67 mg/dL
LACTATE DEHYDROGENASE [3]: 216.67 u/L
LIPASE [3]: 10 u/L
PHOSPHORUS [3]: 12.7 mg/dL
POTASSIUM [3]: 6.55 MEQ/L
SODIUM [3]: 143.43 MEQ/L
TOTAL BILIRUBIN [3]: 0.23 mg/dL
TOTAL PROTEIN [3]: 5.67 G/DL
URIC ACID [3]: 1.3 mg/dL

— ChEMBL document CHEMBL3885881, “DrugMatrix”
